Measured values reported in ChEMBL document CHEMBL4422653, “Discovery of a potent tyrosine kinase AXL inhibitor bearing the 3-((2,3,4,5-tetrahydro-1H-benzo[d]azepin-7-yl)amino)pyrazine core” (Bioorg Med Chem Lett, 2019).

Assays:
Format in all cases: ADME, organism-based
Conditions in all cases: in vivo
[1] = Cmax in Sprague-Dawley rat at 3 mg/kg, po; design: dose 3 mg/kg, route oral
[2] = AUC (0 to infinity) in Sprague-Dawley rat at 3 mg/kg, po; design: dose 3 mg/kg, time infinity, route oral
[3] = AUC (0 to infinity) in Sprague-Dawley rat at 1 mg/kg, iv; design: dose 1 mg/kg, route intravenous, time infinity
[4] = Oral bioavailability in Sprague-Dawley rat at 3 mg/kg
[5] = Tmax in Sprague-Dawley rat at 3 mg/kg, po
[6] = Clearance in Sprague-Dawley rat at 1 mg/kg, iv
[7] = Half life in Sprague-Dawley rat at 1 mg/kg, iv

Q: For `CCc1nc(C(N)=O)c(Nc2ccc3c(c2)CCN(C2CCCC2)CC3)nc1NC1CCOCC1`, which Cmax [1] is on record?
A: 23.8 ng/mL

Q: And the AUC(0-inf) [2]?
A: 199 ng·h/mL

Q: And the AUC(0-inf) [3]?
A: 179 ng·h/mL

Q: And the bioavailability [4]?
A: 24.8%

Q: And the Tmax [5]?
A: 4 h

Q: And the clearance [6]?
A: 93.2 mL/min/kg

Q: What about the half-life [7] of the same compound?
A: 2.12 h
